In general, solubility refers to the dissolved amount per volume that the medium holds.

In brackets after ≈: the same amount, converted by molar mass.

A short description of the data set: solubility of the dyes in water. Format: physicochemical. Particulars: excess dye stirred 1 h at 50° C., cooled to 20° C., filtered, spectroscopic determination, read-out: Solubility (in g per 100 ml). As for the experimental part: The solubilities of the dyes according to the invention were determined as follows:
An excess of dye was heated at 50° C. in water with stirring for one hour. The mixture was then cooled down to 20° C. and filtered, and the dye content of the clear solution was determined spectroscopically.
For `CCCCCCNc1nc(NCCCCCC)nc(Nc2cc(S(=O)(=O)O)cc3cc(S(=O)(=O)O)c(N=Nc4ccccc4S(=O)(=O)O)c(O)c23)n1` [dye 5, reference compound], the solubility was 150 mg/mL (≈ 192 mM).

Regarding `CN(CCO)c1nc(NCCS(=O)(=O)O)nc(Nc2ccc(N=Nc3c(N)ccc4cc(S(=O)(=O)O)cc(O)c34)c(S(=O)(=O)O)c2)n1` [compound 100], the solubility came out at 350 mg/mL (≈ 490 mM).

As for `COc1cc(N=Nc2c(N)ccc3cc(S(=O)(=O)O)cc(O)c23)c(C)cc1Nc1nc(NCCO)nc(Nc2cccc(S(=O)(=O)O)c2)n1` [dye 1, reference compound], the solubility was 200 mg/mL (≈ 281 mM).

For the compound `Nc1ccc2cc(S(=O)(=O)O)cc(O)c2c1N=Nc1ccc(Nc2nc(NCCS(=O)(=O)O)nc(N(CCO)CCO)n2)cc1S(=O)(=O)O` [compound 101], the solubility turned out to be 320 mg/mL (≈ 430 mM).

As to `Nc1ccc2cc(S(=O)(=O)O)cc(O)c2c1N=Nc1ccc(Nc2nc(NCCS(=O)(=O)O)nc(NCCS(=O)(=O)O)n2)cc1S(=O)(=O)O` [compound 102], the solubility is 260 mg/mL (≈ 340 mM).

The values are drawn from patent US5824785A, “Dyes for ink jet printing” (Ilford Imaging Switzerland GmbH, priority 1995, dated 1998).
